# Measured values taken from PubChem BioAssay (NCI).
#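 48-hour exposure; five concentrations; linearly interpolated endpoints. Abbreviation: GI50, concentration required for 50% inhibition of growth. TGI: total growth inhibition.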
# Key:
# Assay in all cases: DTP human tumour cell line panel, 48 h
# [1] = tested on: MDA-MB-231 breast
# [2] = tested on: SNB-19 CNS
# [3] = tested on: EKVX NSCLC
# [4] = tested on: T-47D breast
# [5] = tested on: HCT-15 colon
# [6] = tested on: SW-620 colon
# [7] = tested on: OVCAR-8 ovarian
# [8] = tested on: HT29 colon
# [9] = tested on: CCRF-CEM leukemia
# [10] = tested on: LOX IMVI melanoma
SMILES,TGI [1] [µM],TGI [2] [µM],TGI [3] [µM],TGI [4] [µM],TGI [5] [µM],TGI [6] [µM],TGI [7] [µM],TGI [8] [µM],TGI [9] [µM],TGI [10] [µM],GI50 [1] [µM],GI50 [2] [µM],GI50 [3] [µM],GI50 [4] [µM],GI50 [5] [µM],GI50 [7] [µM],GI50 [9] [µM],GI50 [10] [µM]
N#CC(Cc1ccccc1)N(CCC1=CCCCC1)C(c1ccccc1)c1ccccc1 (stereo unspecified),> 100,> 100,> 100,> 100,> 100,> 100,> 100,> 100,> 100,–,–,–,–,–,–,–,–,–
COc1cccc(Nc2nc(-c3cccs3)nc3cc(OC)c(OC)cc23)c1,53.8,> 100,> 100,> 100,49.3,52.4,78.5,48.8,–,–,–,–,–,–,–,–,–,–
O=C(OCc1ccccc1)N1CCNCCN(C(=O)OCc2ccccc2)CCNCC1,–,> 100,> 100,32.7,> 100,> 100,> 100,42,> 100,27.5,–,–,–,–,–,–,–,–
COc1ccc2cc1Oc1ccc(cc1)C[C@H]1c3cc(c(OC)cc3CCN1C)Oc1c(O)c(OC)cc3c1[C@H](C2)N(C)CC3,–,134,8.53,–,33.5,37.2,8.43,55.2,83.8,26.7,–,–,–,–,–,–,–,–
CC1CN(C)c2ccccc2N=C1NN (stereo unspecified),> 100,> 100,> 100,–,> 100,> 100,> 100,> 100,> 100,–,–,–,–,–,–,–,–,–
O=C1c2cc3c(cc2-c2c1c1ccc(F)cc1c(=O)n2C[C@H](O)[C@@H](O)[C@H](O)CO)OCO3,0.984,3.01,3.05,0.15,0.766,–,> 100,–,2.18,0.137,0.325,0.0513,0.308,0.0229,0.183,0.0904,0.0344,0.0299
COc1cc(S(=O)(=O)Nc2nc(-c3ccc(N4C(=O)C(CC(=O)O)SC4c4cccs4)cc3)cs2)ccc1Cl (stereo unspecified),> 100,> 100,–,91.9,39.8,78.8,> 100,> 100,–,39.3,–,–,–,–,–,–,–,–
O=C(Cc1ccc(O)c(O)c1)NCc1c[nH]c2ccccc12,–,> 100,> 100,> 100,> 100,> 100,> 100,> 100,47.8,–,–,–,–,–,–,–,–,–
CC1(C)O[C@H]2OC(CO[Si](C)(C)C(C)(C)C)C(N=[N+]=[N-])[C@H]2O1 (stereo partly specified),–,36.1,39.3,–,38.3,52.4,38.1,25.5,38.3,35.9,–,–,–,–,–,–,–,–
C/C(=C\CBr)CCC(Br)C(C)(C)Br (stereo unspecified),> 100,> 100,> 100,> 100,> 100,> 100,> 100,> 100,> 100,–,–,–,–,–,–,–,–,–
COc1ccc(-n2c(C)nc3ccc(NC(=S)Nc4ccccc4)cc3c2=O)cc1,> 100,> 100,> 100,> 100,> 100,> 100,> 100,> 100,–,> 100,–,–,–,–,–,–,–,–
O=C1CCCCC1CN1CCCCC1 (stereo unspecified),> 100,> 100,> 100,–,> 100,> 100,> 100,> 100,> 100,> 100,–,–,–,–,–,–,–,–
COC(=O)c1c(C)nc2c1cc(O)c1[nH]c(C)c(C)nc12,–,> 100,> 100,> 100,> 100,> 100,> 100,> 100,> 100,> 100,–,–,–,–,–,–,–,–
COc1ccc(/C=c2\sc3n(c2=O)CCN=3)cc1,–,–,> 100,–,> 100,> 100,> 100,> 100,> 100,> 100,–,–,–,–,–,–,–,–
CCOC(=O)Nc1sc2c(c1C#N)CCCC2,> 100,> 100,> 100,–,> 100,> 100,–,> 100,> 100,> 100,–,–,–,–,–,–,–,–
Nc1nc(SCCC/C=C/I)nc2c1ncn2C1OC(COP(=O)(O)O)C(O)C1O (stereo unspecified),–,> 100,> 100,–,> 100,> 100,> 100,> 100,> 100,> 100,–,–,–,–,–,–,–,–
COC(=O)[C@@H](O)[C@](O)(CCC(C)C)C(=O)O[C@@H]1C(OC)=C[C@]23CCCN2CCc2cc4c(cc2[C@H]13)OCO4,–,2.67,6.09,–,7.33,9.94,6.51,12.2,> 27,5.21,–,–,–,–,–,–,–,–
CCCCCCCC/C=C\CCCCCCCCCCCC(=O)O,–,> 64.5,92.8,–,122,90.1,> 109,> 125,57.5,70.8,–,–,–,–,–,–,–,–
O=[N+]([O-])c1ccc2[nH]nc(OCc3ccccc3Cl)c2c1,> 100,> 100,> 100,42.9,> 100,–,> 100,> 100,> 100,> 100,–,–,–,–,–,–,–,–
CC(=O)N1C(C(=O)NC2CCCCC2)CSC1c1ccccc1 (stereo unspecified),–,> 100,> 100,–,> 100,> 100,> 100,> 100,> 100,> 100,–,–,–,–,–,–,–,–
CC1(C(=O)O)CCC2(C)CCC3(C)C(=CC(=O)C4C5(C)CCC(O)C(C)(C)C5CCC43C)C2C1 (stereo unspecified),–,> 100,> 100,99.1,85.4,> 100,> 100,38.7,95.9,41.8,–,–,–,–,–,–,–,–
N#C/C(=C1/Sc2c(nc[nH]c2=O)N1c1ccccc1)c1nc2ccccc2[nH]1,–,> 100,> 100,–,> 100,> 100,> 100,> 100,> 100,–,–,–,–,–,–,–,–,–
Nc1c(S(=O)(=O)O)cc2cc(S(=O)(=O)O)ccc2c1N=Nc1ccc(-c2ccc(N=Nc3c(N)c(S(=O)(=O)O)cc4cc(S(=O)(=O)O)ccc34)c(S(=O)(=O)O)c2)cc1,–,> 100,> 100,–,> 100,> 100,> 100,> 100,> 100,> 100,–,–,–,–,–,–,–,–
O=C(N/N=C/c1ccc(Cl)cc1)c1c(Cl)c(Cl)c(Cl)c(Cl)c1-c1nc2ccccc2[nH]1,–,> 100,> 100,47.5,> 100,> 100,–,> 100,> 100,> 100,–,–,–,–,–,–,–,–
